Tests used:
[1] = target: T1, rat EP1 receptor (Rattus norvegicus, UniProt P70597); experiment: Test to measure receptor antagonistic activity using EP1 receptor-expressing cells (PGE2-induced intracellular Ca change, FLIPR); assay type: cell-based; conditions: HEK293 cells stably expressing rat EP1 receptor, 100 nM PGE2
T1 construct: expressed in transfected cells
T1 sequence (P70597 1-405): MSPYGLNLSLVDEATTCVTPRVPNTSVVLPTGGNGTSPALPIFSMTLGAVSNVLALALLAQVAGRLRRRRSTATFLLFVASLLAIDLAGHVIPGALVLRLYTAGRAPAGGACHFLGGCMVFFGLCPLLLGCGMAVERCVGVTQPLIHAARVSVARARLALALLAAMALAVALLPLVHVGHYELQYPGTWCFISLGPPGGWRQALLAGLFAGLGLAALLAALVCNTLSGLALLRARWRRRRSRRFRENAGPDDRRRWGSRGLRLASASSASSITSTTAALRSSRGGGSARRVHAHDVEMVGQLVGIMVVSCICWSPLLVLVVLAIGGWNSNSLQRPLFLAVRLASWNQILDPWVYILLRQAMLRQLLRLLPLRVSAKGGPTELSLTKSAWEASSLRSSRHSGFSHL
Method: Test Example 1 Test to Measure Receptor Antagonistic Activity Using EP1 Receptor-Expressing Cells
HEK293 cells (American Type Culture Collection) that stably expressed rat EP1 receptor were dispensed onto a 96-well poly-D-lysine-coated plate (product name: BIOCOAT, PDL96W black/clear, by Nippon Becton Dickinson) at 2×10^4 cells/well on the day before the experiment, and incubated overnight at 37° C. under 5% carbon dioxide (CO2) in a culture medium containing 10% fetal bovine serum (FBS) (product name: DMEM, Invitrogen). The culture medium was replaced with a loading buffer (a washing solution containing 4 μM of fluorescent-labeled indicator (product name: Fluo3-AM, Dojindo): Hank's balanced salt solution (HBSS), 20 mM 2-[4-(2-hydroxyethyl)-1-piperazinyl]ethanesulfonic acid (HEPES)-sodium hydroxide (NaOH), 2.5 mM Probenecid, and 0.1% bovine serum albumin (BSA)), and left to stand at room temperature for 3 hours, and the cells were washed using a plate washer (product name: ELx405, Bio-Tek Instruments, Inc.) in which the washing solution had been set up. The compound that had been preliminarily dissolved and diluted in the washing solution was added thereto, and set up in a system for measuring the intracellular calcium (Ca) concentration (product name: FLIPR, Molecular Devices, Inc.). After 5 minutes, PGE2 was added to a final concentration of 100 nM, and the change in intracellular Ca concentration was measured. The difference between a maximum value and a minimum value in the intracellular Ca concentration change was determined, and retained as measurement data. When a response with addition of 100 nM PGE2 was taken as 0% and a response with addition of a buffer was taken as 100%, the concentration causing 50% inhibition was determined as an IC50 value. Further, in the table, Ex represents Example numbers as described later.

[2] = Test on metabolic stability in human liver microsome; assay type: in vitro ADME; conditions: human liver microsomes, pH 7.4; human liver microsome 0.2 mg protein/ml, 37° C. 15 minutes, in vitro clearance by integration plot
Method: Test Example 5 Test on Metabolic Stability in Human Liver Microsome
Using a glass test tube, a test compound and human liver microsome (0.2 mg protein/ml) were incubated at 37° C. for 15 minutes in a 100 mM phosphate buffer (pH=7.4) containing 0.1 mM EDTA and 1 mM NADPH. Thereafter, the reaction was stopped by adding an aqueous solution containing 80% acetonitrile. Thereafter, each sample was analyzed by HPLC and the in vitro clearance (CLint) was calculated by an integration plot.

[3] = target: T2, CYP3A4 (Homo sapiens, UniProt P08684); experiment: Cytochrome P450 (CYP) 3A4 enzyme inhibition, Inhibition Test I; assay type: in vitro ADME; conditions: human liver microsomes, probe midazolam; human liver microsome 0.1 mg protein/ml, substrate midazolam, 37° C. 20 minutes; read-out: Inhibitory activity I (%)
T2 construct: human liver microsome (0.1 mg protein/ml); from tissue; host or cells: human liver microsome
Method: (§1) Test Example 4 Test on Cytochrome P450 (CYP) 3A4 Enzyme Inhibition (Evaluation of Drug Interaction)
(1) Inhibition Test I (Calculation of Inhibitory Activity I)
Using a 96-well plate, a substrate (midazolam), a test compound and human liver microsome (0.1 mg protein/ml) were incubated at 37° C. for 20 minutes in a 100 mM phosphate buffer containing 0.1 mM EDTA and 1 mM NADPH. Then, the reaction was stopped by adding an aqueous solution containing 80% acetonitrile. Thereafter, each sample was analyzed by LC/MS, and the inhibitory activity I was calculated using the following formula. Inhibitory Activity I(%)=100−Vi.I/V0.I×100
Vi,I: Metabolic rate of substrate in the presence of the test compound at a known concentration in the inhibition test I
V0,I: Metabolic rate of substrate in the absence of the test compound in the inhibition test I

[4] = target: T2, CYP3A4; experiment: Cytochrome P450 (CYP) 3A4 enzyme inhibition, Inhibition Test II (preincubation); assay type: in vitro ADME; conditions: human liver microsomes, pH 7.4, probe midazolam; human liver microsome 0.1 mg protein/ml, 30 minutes preincubation with test compound, then midazolam 20 minutes; read-out: Inhibitory activity II (%)
Method: as §1
(2) Inhibition Test II (Calculation of Inhibitory Activity II)
Using a 96-well plate, a test compound and human liver microsome (0.1 mg protein/ml) were incubated at 37° C. for 30 minutes in a total amount of 145 μl of 100 mM phosphate buffer (pH=7.4) containing 0.1 mM EDTA and 1 mM NADPH. Then, midazolam as the substrate was added thereto and incubated at 37° C. for 20 minutes. After the incubation, the reaction was stopped by adding an aqueous solution containing 80% acetonitrile. Thereafter, each sample was analyzed by LC/MS, and the inhibitory activity II was calculated using the following formula. Inhibitory Activity II(%)=100−Vi,II/V0,II/(100-inhibitory activity I(%))×100×100
Vi,II: Metabolic rate of substrate in the presence of the test compound at a known concentration in the inhibition test II
V0,II: Metabolic rate of substrate in the absence of the test compound in the inhibition test II

T2 sequence (P08684 whole entry): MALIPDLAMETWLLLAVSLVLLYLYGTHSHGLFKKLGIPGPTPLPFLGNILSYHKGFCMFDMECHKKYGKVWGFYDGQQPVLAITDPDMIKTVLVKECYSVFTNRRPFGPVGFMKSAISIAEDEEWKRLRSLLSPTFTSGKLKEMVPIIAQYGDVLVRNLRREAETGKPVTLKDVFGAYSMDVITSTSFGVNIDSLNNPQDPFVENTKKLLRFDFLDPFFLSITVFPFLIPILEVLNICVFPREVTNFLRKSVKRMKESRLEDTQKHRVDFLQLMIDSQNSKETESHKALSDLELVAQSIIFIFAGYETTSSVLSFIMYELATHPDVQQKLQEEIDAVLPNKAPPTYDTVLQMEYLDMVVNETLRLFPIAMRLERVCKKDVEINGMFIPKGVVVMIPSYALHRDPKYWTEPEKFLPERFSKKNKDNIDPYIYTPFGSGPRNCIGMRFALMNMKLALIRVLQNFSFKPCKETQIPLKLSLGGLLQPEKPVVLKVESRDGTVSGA

Row | SMILES | IC50 [1] [nM] | CLint scaled [2] [mL/min/kg] | inhibition at 20 min [3] [%] | inhibition at 20 min [4] [%]
1 | Cc1cc(C(=O)O)ccc1COc1cc2c(cc1N(CC(C)F)S(=O)(=O)c1cc(F)cc(F)c1)CCC2 (stereo not shown) [Example 63] | 0.3 |  |  | 
2 | Cc1csc(S(=O)(=O)N(CC(C)F)c2cc3c(cc2OCc2ccc(C(=O)O)cc2C)CCC3)n1 (stereo not shown) [Example 66] | 0.53 |  |  | 
3 | Cc1csc(S(=O)(=O)N(CC(C)F)c2cc(C)c(Cl)cc2OCc2ccc(C(=O)O)cc2)n1 (stereo not shown) [Example 71] | 0.32 | 153 |  | 
4 | Cc1csc(S(=O)(=O)N(CC(C)F)c2cc3c(cc2OCc2ccc(C(=O)O)s2)CCC3)n1 (stereo not shown) [Example 80] | 0.85 | 212 |  | 
5 | C[C@@H](F)CN(c1cc2c(cc1OCc1ccc(C(=O)O)cc1)CCC2)S(=O)(=O)c1ccccn1 [Example 102] | 1.8 | 244 | 1 | 0

The next lines start with the values.

Row | IC50 [1] [nM] | CLint scaled [2] [mL/min/kg] | inhibition at 20 min [3] [%] | inhibition at 20 min [4] [%] | SMILES
6 | 0.4 | 228 | 12 | 7 | C[C@H](F)CN(c1cc2c(cc1OCc1ccc(C(=O)O)cc1)CCC2)S(=O)(=O)c1cccnc1 [Example 103]
7 | 0.9 |  |  |  | Cc1csc(S(=O)(=O)N(C[C@H](C)F)c2cc3c(cc2OCc2ccc(C(=O)O)c(F)c2)CCC3)n1 [Example 113]
8 | 1.9 | 58 | 3 | 5 | Cc1cc(OCc2ccc(C(=O)O)cc2)c(N(C[C@@H](C)CF)S(=O)(=O)c2ccccn2)cc1C [Example 117]

— patent publication US8314240B2, “Sulfonamide compounds or salts thereof” (Astellas Pharma Inc., priority 2008, dated 2012)
